# Measured values taken from patent US20230085307A1, “PYRIDAZINONE COMPOUND AND HERBICIDE” (NISSAN CHEMICAL CORPORATION, priority 2019, published 2023).
# Legend:
# blackgrass [1] = assay: Test Example 4: herbicidal effect by soil treatment (Table 19, symbol J); assay type: in vivo, blackgrass (Alopecurus myosuroides); conditions: amount of applied herbicide 320 g/ha
# In short: (§1)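 Herbicidal effect was rated 3 weeks after treatment, using the scoring criteria of an earlier test. The compound, formulated as an emulsion and diluted in water to a set herbicide amount, had been sprayed uniformly on soil over freshly sown seeds. Growth took place in a greenhouse at 25° C. to 30° C.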
# blackgrass [2] = assay: Test Example 5: herbicidal effect by foliage application, plastic box (Table 20, symbol J); assay type: in vivo, blackgrass (Alopecurus myosuroides); conditions: 320 g/ha, foliage application after 14-day growth, evaluated three weeks after application
# In short: (§2)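 Foliar spray test: emulsion formulation diluted in water to a set application rate, sprayed onto 14-day-old plants raised in diluvial soil at 25° C to 30° C under glass. Both herbicidal effect and crop effect rated visually three weeks later.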
# velvetleaf [3] = assay: Test Example 5: herbicidal effect by foliage application, plastic box (Table 20, symbol M); assay type: in vivo, velvetleaf (Abutilon theophrasti); conditions: 320 g/ha, foliage application after 14-day growth, evaluated three weeks after application
# In short: as §2
# redroot pigweed [4] = assay: Test Example 5: herbicidal effect by foliage application, plastic box (Table 20, symbol N); assay type: in vivo, redroot pigweed (Amaranthus retroflexus); conditions: 320 g/ha, foliage application after 14-day growth, evaluated three weeks after application
# In short: as §2
# wild oat [5] = assay: Test Example 4: herbicidal effect by soil treatment (Table 19, symbol I); assay type: in vivo, wild oat (Avena fatua); conditions: amount of applied herbicide 320 g/ha
# In short: as §1
# barnyard grass [6] = assay: Test Example 4: herbicidal effect by soil treatment (Table 19, symbol H); assay type: in vivo, barnyard grass (Echinochloa crus-galli); conditions: amount of applied herbicide 320 g/ha
# In short: as §1
# wild oat [7] = assay: Test Example 5: herbicidal effect by foliage application, plastic box (Table 20, symbol I); assay type: in vivo, wild oat (Avena fatua); conditions: 320 g/ha, foliage application after 14-day growth, evaluated three weeks after application
# In short: as §2
# Japanese bulrush = assay: Test Example 1: herbicidal activity, application before weed generation under submerged conditions (Table 16, symbol B); assay type: in vivo, Japanese bulrush (Schoenoplectus juncoides); conditions: amount of applied herbicide 320 g/ha
# In short: (§3)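 Submerged Wagner pots (alluvial soil, 4 cm water) sown with weed seeds and planted with 2.5-leaf rice seedlings; emulsifiable concentrate diluted in water applied to water surface on sowing day. Held in greenhouse at 25-30 °C; injury scored 0-5 by herbicidal rate after three weeks.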
# Chinese sprangletop = assay: Test Example 3: herbicidal effect by foliage application, Wagner pot (Table 18, symbol D); assay type: in vivo, chinese sprangletop (Leptochloa chinensis); conditions: 320 g/ha
# In short: (§4)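 Plants were sown in alluvial soil held under 0.1–0.5 cm standing water and grown 14 days in a greenhouse at 25–30 °C. An emulsifiable formulation, water-diluted to the set dose, was then sprayed onto the foliage, and effects were scored three weeks later using previously defined criteria.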
# lambsquarters [8] = assay: Test Example 5: herbicidal effect by foliage application, plastic box (Table 20, symbol O); assay type: in vivo, lambsquarters (Chenopodium album); conditions: 320 g/ha, foliage application after 14-day growth, evaluated three weeks after application
# In short: as §2
# redroot pigweed [9] = assay: Test Example 4: herbicidal effect by soil treatment (Table 19, symbol N); assay type: in vivo, redroot pigweed (Amaranthus retroflexus); conditions: amount of applied herbicide 320 g/ha
# In short: as §1
# oval-leafed pondweed = assay: Test Example 1: herbicidal activity, application before weed generation under submerged conditions (Table 16, symbol C); assay type: in vivo, oval-leafed pondweed (Monochoria vaginalis); conditions: amount of applied herbicide 320 g/ha
# In short: as §3
# lambsquarters [10] = assay: Test Example 4: herbicidal effect by soil treatment (Table 19, symbol O); assay type: in vivo, lambsquarters (Chenopodium album); conditions: amount of applied herbicide 320 g/ha
# In short: as §1
# chickweed [11] = assay: Test Example 4: herbicidal effect by soil treatment (Table 19, symbol P); assay type: in vivo, common chickweed (Stellaria media); conditions: amount of applied herbicide 320 g/ha
# In short: as §1
# southern crabgrass [12] = assay: Test Example 5: herbicidal effect by foliage application, plastic box (Table 20, symbol F); assay type: in vivo, southern crabgrass (Digitaria ciliaris); conditions: 320 g/ha, foliage application after 14-day growth, evaluated three weeks after application
# In short: as §2
# green foxtail [13] = assay: Test Example 5: herbicidal effect by foliage application, plastic box (Table 20, symbol G); assay type: in vivo, green foxtail (Setaria viridis); conditions: 320 g/ha, foliage application after 14-day growth, evaluated three weeks after application
# In short: as §2
# windgrass [14] = assay: Test Example 4: herbicidal effect by soil treatment (Table 19, symbol L); assay type: in vivo, windgrass (Apera spica-venti); conditions: amount of applied herbicide 320 g/ha
# In short: as §1
# Italian ryegrass [15] = assay: Test Example 4: herbicidal effect by soil treatment (Table 19, symbol K); assay type: in vivo, Italian ryegrass (Lolium multiflorum); conditions: amount of applied herbicide 320 g/ha
# In short: as §1
# late watergrass = assay: Test Example 1: herbicidal activity, application before weed generation under submerged conditions (Table 16, symbol A); assay type: in vivo, late watergrass (Echinochloa oryzicola); conditions: amount of applied herbicide 320 g/ha
# In short: as §3
# persian speedwell [16] = assay: Test Example 5: herbicidal effect by foliage application, plastic box (Table 20, symbol R); assay type: in vivo, Persian speedwell (Veronica persica); conditions: 320 g/ha, foliage application after 14-day growth, evaluated three weeks after application
# In short: as §2
# rice flat sedge = assay: Test Example 3: herbicidal effect by foliage application, Wagner pot (Table 18, symbol E); assay type: in vivo, rice flat sedge (Cyperus iria); conditions: 320 g/ha
# In short: as §4
# chickweed [17] = assay: Test Example 5: herbicidal effect by foliage application, plastic box (Table 20, symbol P); assay type: in vivo, common chickweed (Stellaria media); conditions: 320 g/ha, foliage application after 14-day growth, evaluated three weeks after application
# In short: as §2
# southern crabgrass [18] = assay: Test Example 4: herbicidal effect by soil treatment (Table 19, symbol F); assay type: in vivo, southern crabgrass (Digitaria ciliaris); conditions: amount of applied herbicide 320 g/ha
# In short: as §1
# velvetleaf [19] = assay: Test Example 4: herbicidal effect by soil treatment (Table 19, symbol M); assay type: in vivo, velvetleaf (Abutilon theophrasti); conditions: amount of applied herbicide 320 g/ha
# In short: as §1
# Italian ryegrass [20] = assay: Test Example 5: herbicidal effect by foliage application, plastic box (Table 20, symbol K); assay type: in vivo, Italian ryegrass (Lolium multiflorum); conditions: 320 g/ha, foliage application after 14-day growth, evaluated three weeks after application
# In short: as §2
# barnyard grass [21] = assay: Test Example 5: herbicidal effect by foliage application, plastic box (Table 20, symbol H); assay type: in vivo, barnyard grass (Echinochloa crus-galli); conditions: 320 g/ha, foliage application after 14-day growth, evaluated three weeks after application
# In short: as §2
# barnyard grass [22] = assay: Test Example 3: herbicidal effect by foliage application, Wagner pot (Table 18, symbol H); assay type: in vivo, barnyard grass (Echinochloa crus-galli); conditions: 320 g/ha
# In short: as §4
# windgrass [23] = assay: Test Example 5: herbicidal effect by foliage application, plastic box (Table 20, symbol L); assay type: in vivo, windgrass (Apera spica-venti); conditions: 320 g/ha, foliage application after 14-day growth, evaluated three weeks after application
# In short: as §2
# green foxtail [24] = assay: Test Example 4: herbicidal effect by soil treatment (Table 19, symbol G); assay type: in vivo, green foxtail (Setaria viridis); conditions: amount of applied herbicide 320 g/ha
# In short: as §1
# persian speedwell [25] = assay: Test Example 4: herbicidal effect by soil treatment (Table 19, symbol R); assay type: in vivo, Persian speedwell (Veronica persica); conditions: amount of applied herbicide 320 g/ha
# In short: as §1
Compound,"Herbicidal effect by soil treatment, J: blackgrass (blackgrass [1])",herbicidal effect on J: blackgrass (evaluation grade 0-5) (blackgrass [2]),herbicidal effect on M: velvetleaf (evaluation grade 0-5) (velvetleaf [3]),herbicidal effect on N: redroot pigweed (evaluation grade 0-5) (redroot pigweed [4]),"Herbicidal effect by soil treatment, I: wild oat (wild oat [5])","Herbicidal effect by soil treatment, H: barnyard grass (barnyard grass [6])",herbicidal effect on I: wild oat (evaluation grade 0-5) (wild oat [7]),"Herbicidal effect, B: Japanese bulrush (Japanese bulrush)",herbicidal effect on Chinese sprangletop (D) (Chinese sprangletop),herbicidal effect on O: lambsquarters (evaluation grade 0-5) (lambsquarters [8]),"Herbicidal effect by soil treatment, N: redroot pigweed (redroot pigweed [9])","Herbicidal effect, C: oval-leafed pondweed (oval-leafed pondweed)","Herbicidal effect by soil treatment, O: lambsquarters (lambsquarters [10])","Herbicidal effect by soil treatment, P: chickweed (chickweed [11])",herbicidal effect on F: southern crabgrass (evaluation grade 0-5) (southern crabgrass [12]),herbicidal effect on G: green foxtail (evaluation grade 0-5) (green foxtail [13]),"Herbicidal effect by soil treatment, L: windgrass (windgrass [14])","Herbicidal effect by soil treatment, K: Italian ryegrass (Italian ryegrass [15])","Herbicidal effect, A: late watergrass (late watergrass)",herbicidal effect on R: persian speedwell (evaluation grade 0-5) (persian speedwell [16]),also measured
COc1ccccc1-c1sc2c(F)cccc2c1-c1c(O)c(C)nn(C)c1=O [4-003],0 (Herbicidal rate of 5% or less (almost no effect)),4 (Herbicidal rate of 70% or more and less than 90%),3 (Herbicidal rate of 40% or more and less than 70%),3 (Herbicidal rate of 40% or more and less than 70%),0 (Herbicidal rate of 5% or less (almost no effect)),0 (Herbicidal rate of 5% or less (almost no effect)),0 (Herbicidal rate of 5% or less (almost no effect)),0 (Herbicidal rate of 5% or less (almost no effect)),3 (Herbicidal rate of 40% or more and less than 70%),3 (Herbicidal rate of 40% or more and less than 70%),4 (Herbicidal rate of 70% or more and less than 90%),0 (Herbicidal rate of 5% or less (almost no effect)),3 (Herbicidal rate of 40% or more and less than 70%),1 (Herbicidal rate of 5% or more and less than 20%),1 (Herbicidal rate of 5% or more and less than 20%),4 (Herbicidal rate of 70% or more and less than 90%),0 (Herbicidal rate of 5% or less (almost no effect)),0 (Herbicidal rate of 5% or less (almost no effect)),3 (Herbicidal rate of 40% or more and less than 70%),5 (Herbicidal rate of 90% or more (almost completely withered)),"herbicidal effect on rice flat sedge (E) (rice flat sedge): 3 (Herbicidal rate of 40% or more and less than 70%); herbicidal effect on P: chickweed (evaluation grade 0-5) (chickweed [17]): 5 (Herbicidal rate of 90% or more (almost completely withered)); Herbicidal effect by soil treatment, F: southern crabgrass (southern crabgrass [18]): 0 (Herbicidal rate of 5% or less (almost no effect)); Herbicidal effect by soil treatment, M: velvetleaf (velvetleaf [19]): 0 (Herbicidal rate of 5% or less (almost no effect)); herbicidal effect on K: Italian ryegrass (evaluation grade 0-5) (Italian ryegrass [20]): 4 (Herbicidal rate of 70% or more and less than 90%); herbicidal effect on H: barnyard grass (evaluation grade 0-5) (barnyard grass [21]): 1 (Herbicidal rate of 5% or more and less than 20%); herbicidal effect on barnyard grass (H) (barnyard grass [22]): 3 (Herbicidal rate of 40% or more and less than 70%); herbicidal effect on L: windgrass (evaluation grade 0-5) (windgrass [23]): 3 (Herbicidal rate of 40% or more and less than 70%); Herbicidal effect by soil treatment, G: green foxtail (green foxtail [24]): 0 (Herbicidal rate of 5% or less (almost no effect)); Herbicidal effect by soil treatment, R: persian speedwell (persian speedwell [25]): 1 (Herbicidal rate of 5% or more and less than 20%)"
CCOc1ccccc1-c1sc2c(F)cccc2c1-c1c(O)c(C)nn(C)c1=O [4-007],3 (Herbicidal rate of 40% or more and less than 70%),4 (Herbicidal rate of 70% or more and less than 90%),3 (Herbicidal rate of 40% or more and less than 70%),3 (Herbicidal rate of 40% or more and less than 70%),0 (Herbicidal rate of 5% or less (almost no effect)),0 (Herbicidal rate of 5% or less (almost no effect)),2 (Herbicidal rate of 20% or more and less than 40%),0 (Herbicidal rate of 5% or less (almost no effect)),3 (Herbicidal rate of 40% or more and less than 70%),1 (Herbicidal rate of 5% or more and less than 20%),0 (Herbicidal rate of 5% or less (almost no effect)),0 (Herbicidal rate of 5% or less (almost no effect)),0 (Herbicidal rate of 5% or less (almost no effect)),3 (Herbicidal rate of 40% or more and less than 70%),3 (Herbicidal rate of 40% or more and less than 70%),5 (Herbicidal rate of 90% or more (almost completely withered)),0 (Herbicidal rate of 5% or less (almost no effect)),0 (Herbicidal rate of 5% or less (almost no effect)),3 (Herbicidal rate of 40% or more and less than 70%),5 (Herbicidal rate of 90% or more (almost completely withered)),"herbicidal effect on rice flat sedge (E) (rice flat sedge): 5 (Herbicidal rate of 90% or more (almost completely withered)); herbicidal effect on P: chickweed (evaluation grade 0-5) (chickweed [17]): 5 (Herbicidal rate of 90% or more (almost completely withered)); Herbicidal effect by soil treatment, F: southern crabgrass (southern crabgrass [18]): 0 (Herbicidal rate of 5% or less (almost no effect)); Herbicidal effect by soil treatment, M: velvetleaf (velvetleaf [19]): 0 (Herbicidal rate of 5% or less (almost no effect)); herbicidal effect on K: Italian ryegrass (evaluation grade 0-5) (Italian ryegrass [20]): 4 (Herbicidal rate of 70% or more and less than 90%); herbicidal effect on H: barnyard grass (evaluation grade 0-5) (barnyard grass [21]): 4 (Herbicidal rate of 70% or more and less than 90%); herbicidal effect on barnyard grass (H) (barnyard grass [22]): 5 (Herbicidal rate of 90% or more (almost completely withered)); herbicidal effect on L: windgrass (evaluation grade 0-5) (windgrass [23]): 2 (Herbicidal rate of 20% or more and less than 40%); Herbicidal effect by soil treatment, G: green foxtail (green foxtail [24]): 0 (Herbicidal rate of 5% or less (almost no effect)); Herbicidal effect by soil treatment, R: persian speedwell (persian speedwell [25]): 3 (Herbicidal rate of 40% or more and less than 70%)"
